According to the supplement of paper PMC10307832:

How the values were obtained:
Test in all cases: relative viability (nuclei count vs DMSO), 5 days (fraction); higher = more cells survive
[1] = system: NCI-H1793
Procedure, shortened: (§1)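 After 5 days of treatment, lung cancer cells in 1536-well plates were fixed and stained in a single step (final 0.05% Triton X-100, 1% formaldehyde, 1 ug/ml Hoechst) and their nuclei counted on 4× images. Treatment had been applied by pin tool the day after seeding as one drug alone or as a fixed anchor-drug dose with five library-drug doses (not always all listed) in √10 steps. Relative viability is the nuclei count of treated wells divided by that of vehicle wells, and values are medians of duplicate plates.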

[2] = system: ChaGo-K-1
Procedure, shortened: as §1

[3] = system: HCC-15
Procedure, shortened: as §1

[4] = system: NCI-H1993
Procedure, shortened: as §1

[5] = system: ABC-1
Procedure, shortened: as §1

[6] = system: NCI-H1944
Procedure, shortened: as §1

[7] = system: HARA
Procedure, shortened: as §1

[8] = system: SK-LU-1
Procedure, shortened: as §1

[9] = system: NCI-H2126
Procedure, shortened: as §1

[10] = system: LC-2-ad
Procedure, shortened: as §1

[11] = system: NCI-H1734
Procedure, shortened: as §1

[12] = system: NCI-H838
Procedure, shortened: as §1

[13] = system: NCI-H2228
Procedure, shortened: as §1

[14] = system: NCI-H2405
Procedure, shortened: as §1

[15] = system: A-427
Procedure, shortened: as §1

[16] = system: HCC-78
Procedure, shortened: as §1

[17] = system: UMC-11
Procedure, shortened: as §1

[18] = system: HCC-366
Procedure, shortened: as §1

[19] = system: EMC-BAC-2
Procedure, shortened: as §1

[20] = system: NCI-H23
Procedure, shortened: as §1

[21] = system: NCI-H2009
Procedure, shortened: as §1

[22] = system: NCI-H2023
Procedure, shortened: as §1

[23] = system: COR-L23
Procedure, shortened: as §1

## O=C(O)c1ccc(-c2c[nH]c3ncc(-c4ccccc4)cc23)cc1C1CCCC1 + COc1cccc2cc(-c3nc([C@H]4CC[C@H](C(=O)O)CC4)n4ncnc(N)c34)[nH]c12 [OSI-027] (partner 0.5 µM)
[1]; first compound 0.04 µM
  relative viability: 0.312
[1]; first compound 0.1265 µM
  relative viability: 0.362
[1]; first compound 0.4 µM
  relative viability: 0.288
[1]; first compound 1.265 µM
  relative viability: 0.283
[2]; first compound 0.04 µM
  relative viability: 0.651
[2]; first compound 0.1265 µM
  relative viability: 0.595
[2]; first compound 0.4 µM
  relative viability: 0.532
[2]; first compound 1.265 µM
  relative viability: 0.51
[3]; first compound 0.04 µM
  relative viability: 0.807
[3]; first compound 0.1265 µM
  relative viability: 0.813
[3]; first compound 0.4 µM
  relative viability: 0.633
[3]; first compound 1.265 µM
  relative viability: 0.399
[4]; first compound 0.04 µM
  relative viability: 0.521
[4]; first compound 0.1265 µM
  relative viability: 0.55
[4]; first compound 0.4 µM
  relative viability: 0.568
[4]; first compound 1.265 µM
  relative viability: 0.586
[5]; first compound 0.04 µM
  relative viability: 0.468
[5]; first compound 0.1265 µM
  relative viability: 0.511
[5]; first compound 0.4 µM
  relative viability: 0.418
[5]; first compound 1.265 µM
  relative viability: 0.568
[6]; first compound 0.04 µM
  relative viability: 0.429
[6]; first compound 0.1265 µM
  relative viability: 0.428
[6]; first compound 0.4 µM
  relative viability: 0.345
[6]; first compound 1.265 µM
  relative viability: 0.39
[7]; first compound 0.04 µM
  relative viability: 0.463
[7]; first compound 0.1265 µM
  relative viability: 0.733
[7]; first compound 0.4 µM
  relative viability: 0.55
[7]; first compound 1.265 µM
  relative viability: 0.591
[8]; first compound 0.04 µM
  relative viability: 0.329
[8]; first compound 0.1265 µM
  relative viability: 0.391
[8]; first compound 0.4 µM
  relative viability: 0.324
[8]; first compound 1.265 µM
  relative viability: 0.274
[9]; first compound 0.04 µM
  relative viability: 0.749
[9]; first compound 0.1265 µM
  relative viability: 0.732
[9]; first compound 0.4 µM
  relative viability: 0.827
[9]; first compound 1.265 µM
  relative viability: 0.618
[10]; first compound 0.04 µM
  relative viability: 0.805
[10]; first compound 0.1265 µM
  relative viability: 0.905
[10]; first compound 0.4 µM
  relative viability: 0.757
[10]; first compound 1.265 µM
  relative viability: 0.68
[11]; first compound 0.04 µM
  relative viability: 0.621
[11]; first compound 0.1265 µM
  relative viability: 0.701
[11]; first compound 0.4 µM
  relative viability: 0.549
[11]; first compound 1.265 µM
  relative viability: 0.512
[12]; first compound 0.04 µM
  relative viability: 0.322
[12]; first compound 0.1265 µM
  relative viability: 0.452
[12]; first compound 0.4 µM
  relative viability: 0.4
[12]; first compound 1.265 µM
  relative viability: 0.358
[13]; first compound 0.04 µM
  relative viability: 0.557
[13]; first compound 0.1265 µM
  relative viability: 0.568
[13]; first compound 0.4 µM
  relative viability: 0.446
[13]; first compound 1.265 µM
  relative viability: 0.355
[14]; first compound 0.04 µM
  relative viability: 0.653
[14]; first compound 0.1265 µM
  relative viability: 0.626
[14]; first compound 0.4 µM
  relative viability: 0.617
[14]; first compound 1.265 µM
  relative viability: 0.605
[15]; first compound 0.04 µM
  relative viability: 0.48
[15]; first compound 0.1265 µM
  relative viability: 0.54
[15]; first compound 0.4 µM
  relative viability: 0.418
[15]; first compound 1.265 µM
  relative viability: 0.493
[16]; first compound 0.1265 µM
  relative viability: 0.396
[16]; first compound 0.4 µM
  relative viability: 0.386
[16]; first compound 1.265 µM
  relative viability: 0.327
[17]; first compound 0.04 µM
  relative viability: 0.482
[17]; first compound 0.1265 µM
  relative viability: 0.547
[17]; first compound 0.4 µM
  relative viability: 0.46
[17]; first compound 1.265 µM
  relative viability: 0.375
[18]; first compound 0.04 µM
  relative viability: 1.17
[18]; first compound 0.1265 µM
  relative viability: 0.849
[18]; first compound 0.4 µM
  relative viability: 0.966
[18]; first compound 1.265 µM
  relative viability: 0.994
[19]; first compound 0.04 µM
  relative viability: 0.401
[19]; first compound 0.1265 µM
  relative viability: 0.388
[19]; first compound 0.4 µM
  relative viability: 0.39
[19]; first compound 1.265 µM
  relative viability: 0.365
[20]; first compound 0.04 µM
  relative viability: 0.599
[20]; first compound 0.1265 µM
  relative viability: 0.71
[20]; first compound 0.4 µM
  relative viability: 0.576
[20]; first compound 1.265 µM
  relative viability: 0.531
[21]; first compound 0.04 µM
  relative viability: 0.69
[21]; first compound 0.1265 µM
  relative viability: 0.687
[21]; first compound 0.4 µM
  relative viability: 0.648
[21]; first compound 1.265 µM
  relative viability: 0.549
[22]; first compound 0.04 µM
  relative viability: 0.516
[22]; first compound 0.1265 µM
  relative viability: 0.572
[22]; first compound 0.4 µM
  relative viability: 0.41
[22]; first compound 1.265 µM
  relative viability: 0.319
[23]; first compound 0.04 µM
  relative viability: 0.763
[23]; first compound 0.1265 µM
  relative viability: 0.876
[23]; first compound 0.4 µM
  relative viability: 0.701
[23]; first compound 1.265 µM
  relative viability: 0.511

## Oc1nc(-c2ccc(C(F)(F)F)cc2)nc2c1CSCC2 [XAV939] + CCNC(=O)c1noc(-c2cc(C(C)C)c(O)cc2O)c1-c1ccc(CN2CCOCC2)cc1 [Luminespib] (partner 0.01 µM)
[1]; first compound 0.08 µM
  relative viability: 0.223
[1]; first compound 0.253 µM
  relative viability: 0.186
[1]; first compound 0.8 µM
  relative viability: 0.176
[1]; first compound 2.53 µM
  relative viability: 0.185
[2]; first compound 0.08 µM
  relative viability: 0.586
[2]; first compound 0.253 µM
  relative viability: 0.384
[2]; first compound 0.8 µM
  relative viability: 0.508
[2]; first compound 2.53 µM
  relative viability: 0.523
[3]; first compound 0.08 µM
  relative viability: 0.465
[3]; first compound 0.253 µM
  relative viability: 0.295
[3]; first compound 0.8 µM
  relative viability: 0.302
[3]; first compound 2.53 µM
  relative viability: 0.235
[4]; first compound 0.08 µM
  relative viability: 0.779
[4]; first compound 0.253 µM
  relative viability: 0.672
[4]; first compound 0.8 µM
  relative viability: 0.748
[4]; first compound 2.53 µM
  relative viability: 0.714
[5]; first compound 0.08 µM
  relative viability: 0.778
[5]; first compound 0.253 µM
  relative viability: 0.584
[5]; first compound 0.8 µM
  relative viability: 0.795
[5]; first compound 2.53 µM
  relative viability: 0.405
[6]; first compound 0.08 µM
  relative viability: 0.843
[6]; first compound 0.253 µM
  relative viability: 0.676
[6]; first compound 0.8 µM
  relative viability: 0.788
[6]; first compound 2.53 µM
  relative viability: 0.595
[7]; first compound 0.08 µM
  relative viability: 1.29
[7]; first compound 0.253 µM
  relative viability: 0.877
[7]; first compound 0.8 µM
  relative viability: 0.865
[7]; first compound 2.53 µM
  relative viability: 0.675
[8]; first compound 0.08 µM
  relative viability: 0.201
[8]; first compound 0.253 µM
  relative viability: 0.193
[8]; first compound 0.8 µM
  relative viability: 0.207
[8]; first compound 2.53 µM
  relative viability: 0.246
[9]; first compound 0.08 µM
  relative viability: 0.985
[9]; first compound 0.253 µM
  relative viability: 0.843
[9]; first compound 0.8 µM
  relative viability: 0.869
[9]; first compound 2.53 µM
  relative viability: 0.733
[10]; first compound 0.08 µM
  relative viability: 1.2
[10]; first compound 0.253 µM
  relative viability: 0.938
[10]; first compound 0.8 µM
  relative viability: 0.973
[10]; first compound 2.53 µM
  relative viability: 0.853
[11]; first compound 0.08 µM
  relative viability: 0.223
[11]; first compound 0.253 µM
  relative viability: 0.216
[11]; first compound 0.8 µM
  relative viability: 0.185
[11]; first compound 2.53 µM
  relative viability: 0.162
[12]; first compound 0.08 µM
  relative viability: 0.338
[12]; first compound 0.253 µM
  relative viability: 0.37
[12]; first compound 0.8 µM
  relative viability: 0.325
[12]; first compound 2.53 µM
  relative viability: 0.304
[13]; first compound 0.08 µM
  relative viability: 0.156
[13]; first compound 0.253 µM
  relative viability: 0.158
[13]; first compound 0.8 µM
  relative viability: 0.152
[13]; first compound 2.53 µM
  relative viability: 0.134
[14]; first compound 0.08 µM
  relative viability: 0.657
[14]; first compound 0.253 µM
  relative viability: 0.673
[14]; first compound 0.8 µM
  relative viability: 0.599
[14]; first compound 2.53 µM
  relative viability: 0.588
[15]; first compound 0.08 µM
  relative viability: 1.15
[15]; first compound 0.253 µM
  relative viability: 0.978
[15]; first compound 0.8 µM
  relative viability: 0.753
[15]; first compound 2.53 µM
  relative viability: 0.782
[17]; first compound 0.08 µM
  relative viability: 1.04
[17]; first compound 0.253 µM
  relative viability: 0.973
[17]; first compound 0.8 µM
  relative viability: 1.02
[17]; first compound 2.53 µM
  relative viability: 0.886
[19]; first compound 0.08 µM
  relative viability: 1.37
[19]; first compound 0.253 µM
  relative viability: 1.09
[19]; first compound 0.8 µM
  relative viability: 0.971
[19]; first compound 2.53 µM
  relative viability: 0.771
[20]; first compound 0.08 µM
  relative viability: 0.251
[20]; first compound 0.253 µM
  relative viability: 0.214
[20]; first compound 0.8 µM
  relative viability: 0.224
[20]; first compound 2.53 µM
  relative viability: 0.221
[21]; first compound 0.08 µM
  relative viability: 1.09
[21]; first compound 0.253 µM
  relative viability: 0.883
[21]; first compound 0.8 µM
  relative viability: 1
[21]; first compound 2.53 µM
  relative viability: 0.94
[22]; first compound 0.08 µM
  relative viability: 0.888
[22]; first compound 0.253 µM
  relative viability: 0.604
[22]; first compound 0.8 µM
  relative viability: 0.589
[22]; first compound 2.53 µM
  relative viability: 0.454
[23]; first compound 0.08 µM
  relative viability: 0.929
[23]; first compound 0.253 µM
  relative viability: 0.642
[23]; first compound 0.8 µM
  relative viability: 0.615
[23]; first compound 2.53 µM
  relative viability: 0.792
